We go through six compounds from the supplement of paper PMC11061612.

The test system of assay [1] is CPC-N (Small Cell Lung Carcinoma). The experiment in a line: combination Emax (second highest fraction inhibited in the dose matrix, 72 h); higher = more inhibition; extreme values may be limits of the assay. The procedure, abridged:
(§1)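 Cell lines in DMEM/F12 or RPMI with 10% FBS were plated in 1536-well plates, held 24 hours at 37°C, 5% CO2, then given two-drug dose matrices for 72 hours (DMSO typically 0.2%). Viability was read by CellTiter-Glo 2.0 luminescence and scaled as inhibition from 0 (vehicle wells) to 1 (blank wells). Combination Emax is the second-highest inhibition in the matrix; Bliss excess is observed combination effect minus expected EA + EB − EA·EB, EA and EB being single-agent effects.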

The test system of assay [2] is SCC-4 (Oral Cavity Carcinoma). Described as above. The procedure, abridged:
as §1

Assay [3] deals with SK-CO-1 (Colorectal Carcinoma). The description is as above. The method, boiled down: as §1
Assay [4] deals with SNU-423 (Hepatocellular Carcinoma). Kind of assay: Bliss excess, mean over the matrix (fraction); higher = more synergy. The method, boiled down:
as §1

The test system of a further assay is ES6 (Ewing's Sarcoma). The description is as above. The procedure, abridged:
as §1

The subject of a further assay is UACC-257 (Melanoma). The assay is described as above. The procedure, abridged: as §1
A further assay concerns NCI-H226 (Mesothelioma). The assay is described as above. The procedure, abridged:
as §1

The test system of assay [5] is SAT (Head and Neck Carcinoma). The assay is described as above. The method, boiled down: as §1
The subject of assay [6] is NMC-G1 (Low Grade Glioma). The description is as above. The method, boiled down: as §1
For assay [7], the system named is ZR-75-30 (Breast Carcinoma). The assay is described as above. The method, boiled down: as §1
Assay [8] concerns SiHa (Cervical Carcinoma). Described as above. The procedure, abridged: as §1
For assay [9], the system named is SK-CO-1 (Colorectal Carcinoma). The assay is described as above. The procedure, abridged: as §1
The test system of assay [10] is IA-LM (Non-Small Cell Lung Carcinoma). The assay is described as above. The method, boiled down: as §1
Assay [11] concerns MM1S (Plasma Cell Myeloma). The description is as above. The procedure, abridged:
as §1

Assay [12] concerns LS-1034 (Colorectal Carcinoma). Described as above. The method, boiled down:
as §1

The test system of assay [13] is P32-ISH (Burkitt's Lymphoma). The assay is described as above. The method, boiled down: as §1
Assay [14] concerns SNU-407 (Colorectal Carcinoma). The description is as above. The procedure, abridged: as §1
Assay [15] concerns RCC-JW (Kidney Carcinoma). The assay is described as above. The procedure, abridged:
as §1

Assay [16] concerns DBTRG-05MG (Glioblastoma). The description is as above. The method, boiled down: as §1
The subject of assay [17] is CL-11 (Colorectal Carcinoma). The assay is described as above. The method, boiled down:
as §1

The structures appear in SMILES notation.
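For Bliss excess, mean over the matrix in this document: after 72 h of two-drug dosing.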

With `CN(C)CCCOc1ccc(-c2ccc3ncc4c(c3c2)n(C2CCOCC2)c(=O)n4C)cn1` [AZD0156] + C=CCn1c(=O)c2cnc(Nc3ccc(N4CCN(C)CC4)cc3)nc2n1-c1cccc(C(C)(C)O)n1 [AZD1775] (first compound max 1 µM, partner max 1 µM), the entries for the “combination Emax” value in [1], in assay [2] and in assay [3] were 0.972, 0.526 and 0.562, respectively. In addition, the Bliss excess in assay [4] was -0.0554; in the assay on ES6 (Ewing's Sarcoma), -0.0501; in the assay on UACC-257 (Melanoma), -0.0223; in the assay on NCI-H226 (Mesothelioma), -0.0862; in assay [5] it was -0.0388; in assay [6] it was -0.0467. For the same compound, the Bliss excess in assay [7] was -0.0398; in assay [8] it was -0.0334; in [9], -0.0523; in assay [10], -0.0068; in assay [11] it was -0.0653; in [12], -0.0318. Also, the Bliss excess in [13] was -0.011; in assay [14] it was -0.0136; in assay [15], -0.061; in [16] it was -0.0489; in assay [17], -0.0547.
For `CN(C)CCCOc1ccc(-c2ccc3ncc4c(c3c2)n(C2CCOCC2)c(=O)n4C)cn1` [AZD0156] + CCN(CCO)CCCOc1ccc2c(Nc3cc(CC(=O)Nc4cccc(F)c4)[nH]n3)ncnc2c1 [AZD2811] (first compound max 1 µM, 7x7, partner max 1 µM), the “combination Emax” value in assay [1] worked out at 0.794; in assay [2], 0.336; in assay [3] it was 0.798. Also, the Bliss excess is -0.0192 in assay [4]; -0.0766 in the assay with ES6 (Ewing's Sarcoma); -0.039 with UACC-257 (Melanoma); -0.0676 in the assay with NCI-H226 (Mesothelioma); -0.0362 in assay [5]; -0.0855 in assay [6]. The Bliss excess is -0.0415 in assay [7]; -0.0083 in assay [8]; 0.0205 in assay [9]; -0.0326 in [10]; 0.0135 in assay [11]; -0.0261 in [12]. Moreover, the Bliss excess is -0.0042 in assay [13]; -0.0247 in assay [14]; -0.0243 in assay [15]; -0.0453 in assay [16]; -0.0288 in assay [17].
As to `CN(C)CCCOc1ccc(-c2ccc3ncc4c(c3c2)n(C2CCOCC2)c(=O)n4C)cn1` [AZD0156] + C[C@@H]1COCCN1C2=NC(=NC(=C2)C3(CC3)[S@](=N)(=O)C)C4=C5C=CNC5=NC=C4 [AZD6738] (first compound max 1 µM, 7x7, partner max 10 µM), the “combination Emax” value in assay [1] is 0.952; in assay [2] it was 0.702; in assay [3] it was 0.721. The Bliss excess in assay [4] is -0.0414; with ES6 (Ewing's Sarcoma), -0.0076; with UACC-257 (Melanoma) it was -0.0338; with NCI-H226 (Mesothelioma) it was -0.0581; in assay [5] it was -0.0116; in assay [6], -0.0603. For the same compound, the Bliss excess in [7] is -0.0305; in assay [8] it was -0.0456; in assay [9] it was -0.0865; in assay [10], -0.0241; in assay [11], 0.0173; in [12], 0.0161. The Bliss excess in assay [13] was 0.0435; in assay [14], -0.0322; in assay [15] it was -0.0531; in [16], -0.022; in assay [17], -0.0265.
For the compound `C=CCn1c(=O)c2cnc(Nc3ccc(N4CCN(C)CC4)cc3)nc2n1-c1cccc(C(C)(C)O)n1` [AZD1775] + C[C@@H]1COCCN1C2=NC(=NC(=C2)C3(CC3)[S@](=N)(=O)C)C4=C5C=CNC5=NC=C4 [AZD6738] (first compound max 1 µM, partner max 10 µM), the results for the “combination Emax” value in [1], in assay [2] and in assay [3] were 0.999, 0.763 and 0.738, respectively. For the same compound, the Bliss excess in assay [4] was -0.0095; in the assay on ES6 (Ewing's Sarcoma) it was 0.0509; in the assay with UACC-257 (Melanoma) it was 0.0398; in the assay with NCI-H226 (Mesothelioma), -0.0327; in [5] it was -0.0229; in [6], -0.0028. Besides, the Bliss excess was 0.0186 in assay [7]; 0.0019 in [8]; -0.0067 in assay [9]; 0.0477 in assay [10]; -0.0128 in assay [11]; 0.0097 in [12]. Further, the Bliss excess was 0.0304 in assay [13]; 0.0031 in assay [14]; 0.0571 in assay [15]; -0.0076 in assay [16]; -0.0047 in [17].
Take `C=CCn1c(=O)c2cnc(Nc3ccc(N4CCN(C)CC4)cc3)nc2n1-c1cccc(C(C)(C)O)n1` [AZD1775] + O=C(c1cc(Cc2n[nH]c(=O)c3ccccc23)ccc1F)N1CCN(C(=O)C2CC2)CC1 [Olaparib] (first compound max 1 µM, partner max 10 µM): the “combination Emax” value in assay [1] worked out at 0.93; in [2], 0.496; in assay [3], 0.662. Besides, the Bliss excess in assay [4] is -0.0577; in the assay with ES6 (Ewing's Sarcoma), 0.0465; in the assay with UACC-257 (Melanoma) it was -0.0197; in the assay with NCI-H226 (Mesothelioma), -0.035; in assay [5], -0.0474; in assay [6] it was -0.0352. The Bliss excess was -0.0461 in [7]; -0.0444 in assay [8]; -0.0858 in assay [9]; -0.0513 in assay [10]; -0.0321 in assay [11]; 0.0299 in [12]. In addition, the Bliss excess was -0.0323 in assay [13]; -0.0364 in [14]; -0.0005 in assay [15]; -0.0747 in [16]; -0.0099 in assay [17].
In the case of `CCN(CCO)CCCOc1ccc2c(Nc3cc(CC(=O)Nc4cccc(F)c4)[nH]n3)ncnc2c1` [AZD2811] + C=CCn1c(=O)c2cnc(Nc3ccc(N4CCN(C)CC4)cc3)nc2n1-c1cccc(C(C)(C)O)n1 [AZD1775] (first compound max 1 µM, partner max 1 µM), the entries for the “combination Emax” value in assay [1], in [2] and in assay [3] were 0.961, 0.454 and 0.674, respectively. The Bliss excess in assay [4] is -0.01; in the assay with ES6 (Ewing's Sarcoma) it was -0.0792; in the assay with UACC-257 (Melanoma), -0.032; in the assay with NCI-H226 (Mesothelioma) it was -0.0708; in [5], 0.033; in assay [6], -0.0847. Moreover, the Bliss excess in assay [7] is -0.0422; in [8], 0.0089; in [9] it was -0.0559; in [10], 0.0064; in [11] it was 0.0048; in assay [12], 0.0033. Besides, the Bliss excess in assay [13] was -0.0336; in assay [14], -0.015; in assay [15], -0.0118; in assay [16], -0.0402; in assay [17], 0.0034.
